Earlier results in patent publication US20030224072A1, “Topical and oral administration of a composition containing Pelargonium Graveolens for diagnosis and treatment of various neuralgias and other conditions” (priority 2002, published 2003).

Tested on: neuropathic pain
Details: topical

SMILES: COc1cc(CNC(=O)CCCC/C=C/C(C)C)ccc1O [Capsaicin]
- duration of burning sensation on skin: approximately one week
- share of neuropathic pain patients with pain relief: only a small percentage
